Experimental data from article PMC9658223, “New, Eco-Friendly Method for Synthesis of 3-Chlorophenyl and 1,1′-Biphenyl Piperazinylhexyl Trazodone Analogues with Dual 5-HT1A/5-HT7 Affinity and Its Antidepressant-like Activity” (Molecules, 2022).
Where a name gives a salt, the structure may show the parent alone.

Legend:
5-HT7 receptor = target: T1, 5-HT7 receptor (Homo sapiens, UniProt P34969); experiment: LANCE Ultra cAMP assay, inhibition of 5-CT-induced cAMP in HEK-293 cells overexpressing 5-HT7bR; assay type: cell-based
T1 construct: gene HTR7; 5-HT7bR
Excerpt: LANCE Ultra cAMP assay, inhibition of 5-CT-induced cAMP in HEK-293 cells overexpressing 5-HT7bR on 5-HT7 receptor | Both behaved as 5-HT7R antagonists | Both behaved as 5-HT7R antagonists, while 7b·HCl additionally acted as a 5-HT1AR antagonist in a cAMP assay.

5-HT1A receptor = target: T2, 5-HT1A receptor (Homo sapiens, UniProt P08908); experiment: LANCE Ultra cAMP functional antagonist assay in HEK293 cells; assay type: cell-based
T2 construct: gene HTR1A
T2 sequence (P08908 1-422): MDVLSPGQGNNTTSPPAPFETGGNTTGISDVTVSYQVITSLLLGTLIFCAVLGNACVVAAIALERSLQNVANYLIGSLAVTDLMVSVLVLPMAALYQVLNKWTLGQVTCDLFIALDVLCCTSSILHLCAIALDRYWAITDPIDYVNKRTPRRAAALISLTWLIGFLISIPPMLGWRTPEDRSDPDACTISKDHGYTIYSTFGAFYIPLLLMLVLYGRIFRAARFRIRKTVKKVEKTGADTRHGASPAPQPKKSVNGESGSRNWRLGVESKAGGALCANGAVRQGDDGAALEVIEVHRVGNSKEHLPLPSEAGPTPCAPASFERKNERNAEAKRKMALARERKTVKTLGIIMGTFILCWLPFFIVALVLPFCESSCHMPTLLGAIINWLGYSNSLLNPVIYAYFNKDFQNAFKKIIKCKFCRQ
Excerpt: LANCE Ultra cAMP functional antagonist assay in HEK293 cells on 5-HT1A receptor | 7b·HCl additionally acted as a 5-HT1AR antagonist in a cAMP assay

CYP3A4 = CYP3A4 (Homo sapiens, UniProt P08684); experiment: CYP3A4 P450-Glo luminescence assay (Promega), single concentration […]; assay type: biochemical
CYP3A4, sequence (P08684 2-503): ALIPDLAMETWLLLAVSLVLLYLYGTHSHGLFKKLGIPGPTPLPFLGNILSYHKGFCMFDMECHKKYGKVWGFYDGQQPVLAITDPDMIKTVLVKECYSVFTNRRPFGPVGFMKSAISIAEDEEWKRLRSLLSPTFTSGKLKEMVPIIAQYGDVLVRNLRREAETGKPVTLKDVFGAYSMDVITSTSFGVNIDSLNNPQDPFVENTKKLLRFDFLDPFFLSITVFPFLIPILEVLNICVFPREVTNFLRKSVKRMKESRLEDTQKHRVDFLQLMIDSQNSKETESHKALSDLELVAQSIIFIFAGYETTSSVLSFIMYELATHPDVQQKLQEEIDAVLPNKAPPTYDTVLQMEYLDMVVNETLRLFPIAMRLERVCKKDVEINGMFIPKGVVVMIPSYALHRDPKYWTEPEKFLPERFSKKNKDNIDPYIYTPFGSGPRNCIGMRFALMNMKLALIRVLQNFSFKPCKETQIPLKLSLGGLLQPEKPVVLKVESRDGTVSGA

T1 sequence (P34969 1-432): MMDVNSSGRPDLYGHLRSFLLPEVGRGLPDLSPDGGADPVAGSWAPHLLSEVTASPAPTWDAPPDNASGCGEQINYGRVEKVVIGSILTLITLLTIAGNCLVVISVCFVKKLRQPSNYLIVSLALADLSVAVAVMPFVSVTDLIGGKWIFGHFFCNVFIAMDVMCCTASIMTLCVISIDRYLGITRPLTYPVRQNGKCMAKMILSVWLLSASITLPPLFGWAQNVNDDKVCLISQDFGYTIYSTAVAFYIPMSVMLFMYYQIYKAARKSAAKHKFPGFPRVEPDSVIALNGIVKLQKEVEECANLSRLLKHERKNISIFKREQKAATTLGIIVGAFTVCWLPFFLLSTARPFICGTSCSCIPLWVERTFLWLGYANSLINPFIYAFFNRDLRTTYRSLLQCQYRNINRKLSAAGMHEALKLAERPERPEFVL

| SMILES | Kb (5-HT7 receptor) | Kb (5-HT1A receptor) | inhibition at 10 µM (CYP3A4) |
| --- | --- | --- | --- |
| O=c1n(CCCCCCN2CCN(c3ccccc3-c3ccccc3)CC2)nc2ccccn12 [7b·HCl, 2-(6-(4-([1,1′-biphenyl]-2-yl)piperazin-1-yl)hexyl)-[1,2,4]triazolo[4,3-a]pyridin-3(2H)-one hydrochloride] | 18 nM | 12 nM | 35% |
| O=c1n(CCCCCCN2CCN(c3cccc(Cl)c3)CC2)nc2ccccn12 [7a·HCl, 2-(6-(4-(3-chlorophenyl)piperazin-1-yl)hexyl)-[1,2,4]triazolo[4,3-a]pyridin-3(2H)-one hydrochloride] | 87 nM |  |  |
